Measured values published in US12466835B1, “Solid forms of macrocyclic compounds, salts and formulations thereof, and methods of preparing and using the same” (Kura Oncology, Inc., priority 2023, dated 2025).
Values after ≈ are worked out from the molar mass of the structure shown.

Key:
Format in all cases: physicochemical
[1] = Solubility testing of solid forms in water, SGF, FaSSIF and FeSSIF media
Experimental: About 15 mg of test material was weighed into a sample vial and then 3.0 mL of water, simulated gastric fluid (SGF), fasted state simulated intestinali fluid (FaSSIF), or fed state simulated intestinal fluid (FeSSIF) media was added. The resulting suspensions were shaken at 37° C. for up to 24 hours. At 0.5, 2, and 24 hours, suspensions were filtered, and test material concentrations in the filtrates were analyzed by HPLC. Residual solids were collected for analysis.

[2] = Stability testing of blended samples exposed to high temperature and/or humidity for four weeks
Excerpt: Compound 1, microcrystalline cellulose, D-mannitol, croscarmellose sodium, and magnesium stearate were blended using standard methods. Results from stability testing from exposure of blended samples to high temperature and/or humidity for four weeks are provided in Table 8.

[3] = Four-week excipient compatibility study under accelerated stress conditions; settings: four weeks, 40° C./75% relative humidity and 60° C. accelerated stress conditions
[4] = Powder properties of Form 1 (bulk density, flowability)
Excerpt: Use of a glidant, disintegrant, and lubricant allowed for acceptable tableting and disintegration characteristics.

[5] = FaSSIF, pH of media 6.5, 37° C.
[6] = FeSSIF, pH of media 5.0, 37° C.
[7] = FaSSIF, pH of media 6.5, 37° C., listed as Free base (Form 1)
[8] = FeSSIF, pH of media 5.0, 37° C., listed as Free base (Form 1)
[9] = SGF, pH of media 1.2, 37° C., listed as Free base (Form 1)
[10] = Water, 37° C., listed as Free base (Form 1)
[11] = FaSSIF, pH of media 6.5, 37° C., listed as Fumarate (Form 8)
[12] = FeSSIF, pH of media 5.0, 37° C., listed as Fumarate (Form 8)
[13] = SGF, pH of media 1.2, 37° C., listed as Fumarate (Form 8)
[14] = Water, 37° C., listed as Fumarate (Form 8)
[15] = SGF, pH of media 1.2, 37° C., listed as 1-Hydroxy-2-naphthoate (Form 13)
[16] = Water, 37° C., listed as 1-Hydroxy-2-naphthoate (Form 13)

Cn1cncc1[C@@]1(N)c2ccc(C#N)c(c2)COc2cccc(c2)-c2cc(C#N)nc3ccc1cc23 [Amorphous free base, (S)-3-amino-3-(1-methyl-1H-imidazol-5-yl)-6-oxa-2(4,6)-quinolina-1,4(1,3)-dibenzenacyclohexaphane-2^2,4^4-dicarbonitrile]
Solubility (mg/mL) 2 h [1, 5]: 0.085 mg/mL (≈ 181 µM)
Solubility (mg/mL) 24 h [1, 5]: 0.09 mg/mL (≈ 192 µM)
Solubility (mg/mL) 2 h [1, 6]: 1.22 mg/mL (≈ 2600 µM)
Solubility (mg/mL) 24 h [1, 6]: 1.29 mg/mL (≈ 2750 µM)
Solubility (mg/mL) 2 h ([1]; SGF, pH of media 1.2, 37° C.): ~5 mg/mL (≈ 10700 µM)
Solubility (mg/mL) 24 h ([1]; SGF, pH of media 1.2, 37° C.): ~5 mg/mL (≈ 10700 µM)
Solubility (mg/mL) 2 h ([1]; Water, 37° C.): 0.002 mg/mL (≈ 4.27 µM)
Solubility (mg/mL) 24 h ([1]; Water, 37° C.): 0.0009 mg/mL (≈ 1.92 µM)

Cn1cncc1[C@@]1(N)c2ccc(C#N)c(c2)COc2cccc(c2)-c2cc(C#N)nc3ccc1cc23 [Compound 1, (S)-3-amino-3-(1-methyl-1H-imidazol-5-yl)-6-oxa-2(4,6)-quinolina-1,4(1,3)-dibenzenacyclohexaphane-2^2,4^4-dicarbonitrile]
% Purity 60° C. [2]: 99.35%
Compatibility with Tablet Formulation 1 excipients [3]: no incompatibility

Cn1cncc1[C@@]1(N)c2ccc(C#N)c(c2)COc2cccc(c2)-c2cc(C#N)nc3ccc1cc23 [Form 1, (S)-3-amino-3-(1-methyl-1H-imidazol-5-yl)-6-oxa-2(4,6)-quinolina-1,4(1,3)-dibenzenacyclohexaphane-2^2,4^4-dicarbonitrile]
bulk density [4]: about 0.2 g/mL
Solubility (mg/mL) 2 h [1, 7]: 0.0066 mg/mL (≈ 14.1 µM)
Solubility (mg/mL) 24 h [1, 7]: 0.011 mg/mL (≈ 23.5 µM)
Solubility (mg/mL) 2 h [1, 6]: ~0.31 mg/mL (≈ 662 µM)
Solubility (mg/mL) 2 h [1, 8]: 0.31 mg/mL (≈ 662 µM)
Solubility (mg/mL) 24 h [1, 6]: ~0.33 mg/mL (≈ 704 µM)
Solubility (mg/mL) 24 h [1, 8]: 0.33 mg/mL (≈ 704 µM)
Solubility (mg/mL) 2 h ([1]; SGF, pH of media 1.2, 37° C.): ~5.04 mg/mL (≈ 10800 µM)
Solubility (mg/mL) 2 h [1, 9]: 5.04 mg/mL (≈ 10800 µM)
Solubility (mg/mL) 24 h ([1]; SGF, pH of media 1.2, 37° C.): ~3.67 mg/mL (≈ 7830 µM)
Solubility (mg/mL) 24 h [1, 9]: 3.67 mg/mL (≈ 7830 µM)
Solubility (mg/mL) 2 h [1, 10]: <LOD
Solubility (mg/mL) 24 h [1, 10]: <LOD

Cn1cncc1[C@@]1(N)c2ccc(C#N)c(c2)COc2cccc(c2)-c2cc(C#N)nc3ccc1cc23 [Form 8, (S)-3-amino-3-(1-methyl-1H-imidazol-5-yl)-6-oxa-2(4,6)-quinolina-1,4(1,3)-dibenzenacyclohexaphane-2^2,4^4-dicarbonitrile]
Solubility (mg/mL) 2 h [1, 11]: 0.16 mg/mL (≈ 342 µM)
Solubility (mg/mL) 24 h [1, 11]: 0.45 mg/mL (≈ 960 µM)
Solubility (mg/mL) 2 h [1, 6]: ~1.26 mg/mL (≈ 2690 µM)
Solubility (mg/mL) 2 h [1, 12]: 1.26 mg/mL (≈ 2690 µM)
Solubility (mg/mL) 24 h [1, 6]: ~1.15 mg/mL (≈ 2450 µM)
Solubility (mg/mL) 24 h [1, 12]: 1.15 mg/mL (≈ 2450 µM)
Solubility (mg/mL) 2 h ([1]; SGF, pH of media 1.2, 37° C.): ≥ 5 mg/mL
Solubility (mg/mL) 2 h [1, 13]: ~5 mg/mL (≈ 10700 µM)
Solubility (mg/mL) 24 h ([1]; SGF, pH of media 1.2, 37° C.): ≥ 5 mg/mL
Solubility (mg/mL) 24 h [1, 13]: ~5 mg/mL (≈ 10700 µM)
Solubility (mg/mL) 2 h [1, 14]: 0.43 mg/mL (≈ 918 µM)
Solubility (mg/mL) 24 h [1, 14]: 0.34 mg/mL (≈ 726 µM)

Cn1cncc1[C@@]1(N)c2ccc(C#N)c(c2)COc2cccc(c2)-c2cc(C#N)nc3ccc1cc23 [Form 13, (S)-3-amino-3-(1-methyl-1H-imidazol-5-yl)-6-oxa-2(4,6)-quinolina-1,4(1,3)-dibenzenacyclohexaphane-2^2,4^4-dicarbonitrile]
Solubility (mg/mL) 2 h ([1]; FaSSIF, pH of media 6.5, 37° C., listed as 1-Hydroxy-2-naphthoate (Form 13)): 0.086 mg/mL (≈ 184 µM)
Solubility (mg/mL) 2 h [1, 6]: ~0.82 mg/mL (≈ 1750 µM)
Solubility (mg/mL) 2 h ([1]; FeSSIF, pH of media 5.0, 37° C., listed as 1-Hydroxy-2-naphthoate (Form 13)): 0.82 mg/mL (≈ 1750 µM)
Solubility (mg/mL) 2 h ([1]; SGF, pH of media 1.2, 37° C.): ~4.05 mg/mL (≈ 8640 µM)
Solubility (mg/mL) 2 h [1, 15]: 4.05 mg/mL (≈ 8640 µM)
Solubility (mg/mL) 24 h ([1]; SGF, pH of media 1.2, 37° C.): ~4.12 mg/mL (≈ 8790 µM)
Solubility (mg/mL) 24 h [1, 15]: 4.12 mg/mL (≈ 8790 µM)
Solubility (mg/mL) 2 h [1, 16]: 0.020 mg/mL (≈ 42.7 µM)
Solubility (mg/mL) 24 h [1, 16]: 0.013 mg/mL (≈ 27.7 µM)
